From ChEMBL document CHEMBL1201862, “PubChem BioAssay data set” (2004)
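Method: 48-hour compound exposure of cells in 96-well plates, five concentrations, linear interpolation of endpoints. GI50 is the concentration that inhibits growth by half.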 The source made the active and inactive calls. Rule as the data show it: active = GI50 up to about 1.1 µM and inactive = higher.

Experiments:
Test in all cases: growth of human tumour cells (NCI), 48 h
[1] = tested on: MOLT-4
[2] = tested on: K562
[3] = tested on: CAKI-1
[4] = tested on: HCC 2998
[5] = tested on: SNB-75
[6] = tested on: SK-MEL-28
[7] = tested on: SNB-19
[8] = tested on: SK-MEL-2
[9] = tested on: UO-31
[10] = tested on: SK-MEL-5
[11] = tested on: NCI-H460
[12] = tested on: HL-60
[13] = tested on: SF-539
[14] = tested on: RXF 393

Measured: GI50

COc1ccc(-c2c(N)[n+]([O-])c3cc(C)c(C)cc3[n+]2[O-])cc1OC
inactive: [1] 78.3 µM | [2] 69.7 µM | [3] 37.8 µM | [4] > 100 µM | [5] 36.4 µM | [6] 38.5 µM | [7] 91.2 µM | [8] 66.8 µM | [9] 54 µM | [10] 30.9 µM | [11] > 100 µM | [12] 46.3 µM | [13] 33.9 µM

CC(Oc1ccc2c(-c3ccc(Cl)cc3)cc(=O)oc2c1)C(=O)O (centres undefined)
inactive: [1] > 100 µM | [2] > 100 µM | [3] > 100 µM | [4] > 100 µM | [14] > 100 µM | [5] > 100 µM | [6] > 100 µM | [7] > 100 µM | [9] > 100 µM | [10] > 100 µM | [11] > 100 µM | [12] > 100 µM | [13] > 100 µM

COC(=O)C12CC(C3CC31)C1CC12 (centres undefined)
inactive: [1] > 100 µM | [2] > 100 µM | [3] > 100 µM | [4] > 100 µM | [6] > 100 µM | [7] > 100 µM | [9] > 100 µM | [10] > 100 µM | [11] > 100 µM | [12] > 100 µM

C#C[C@]1(O)CCC2C3CCc4cc(Oc5nc(F)nc(-n6c(C)nc7cc8ccccc8cc76)n5)ccc4C3CCC21C (some centres undefined)
inactive: [1] 27.4 µM | [2] 34 µM | [4] 53.5 µM | [14] 48.9 µM | [5] 35.6 µM | [6] > 10 µM | [7] 53.1 µM | [8] 45.3 µM | [9] 75.2 µM | [10] 35.6 µM | [11] 25.4 µM | [12] 31.1 µM | [13] 31.6 µM

CC(C)(C)N/N=C(\C(=O)Nc1cccc(Cl)c1)C1C(=O)Nc2ccccc2[S+]1[O-] (centres undefined)
inactive: [1] > 100 µM | [3] > 100 µM | [4] > 100 µM | [14] > 100 µM | [5] > 100 µM | [6] > 100 µM | [7] > 100 µM | [8] > 100 µM | [9] > 100 µM | [10] > 100 µM | [11] > 100 µM | [12] > 100 µM | [13] > 100 µM

CC1=Nn2c(nnc2-c2ccc(Cl)cc2)NC(C)(C)C1
inactive: [1] > 100 µM | [2] > 100 µM | [3] > 100 µM | [4] > 100 µM | [6] > 100 µM | [7] > 100 µM | [8] > 100 µM | [9] > 100 µM | [10] > 100 µM | [11] > 100 µM | [12] > 100 µM | [13] > 100 µM

COc1ccc2ccc3c(c2c1)CN1CCc2cc(OC)c(OC)cc2C1C3 (centres undefined)
inactive: [1] > 100 µM | [2] > 100 µM | [3] > 100 µM | [4] > 100 µM | [5] 28.1 µM | [6] > 100 µM | [7] > 100 µM | [8] > 100 µM | [9] > 100 µM | [10] > 100 µM | [11] > 100 µM | [12] > 100 µM | [13] > 100 µM

C=C(C)CC(C)(c1cc2ccccc2n1C)N1CCOCC1 (centres undefined)
inactive: [1] 40.3 µM | [3] 80.5 µM | [4] > 100 µM | [14] 65.5 µM | [5] > 100 µM | [6] > 100 µM | [7] > 100 µM | [8] > 100 µM | [9] 22.9 µM | [10] 42.2 µM | [11] 60.8 µM | [12] 57 µM | [13] > 100 µM

Cc1cc(C)c(-c2noc(-c3ccc(Cl)cc3)c2C2=NCCCN2)c(C)c1
inactive: [1] 16.8 µM | [2] 14.8 µM | [3] > 100 µM | [4] 15.1 µM | [14] 7.1 µM | [6] 14.8 µM | [7] 21.3 µM | [8] 20.9 µM | [9] 16.2 µM | [10] 10.4 µM | [11] 11.7 µM | [12] 13.2 µM | [13] 14.1 µM

CC(C)(C)c1cc(C(O)(C(F)(F)F)C(F)(F)F)c2c(c1)C(C(F)(F)F)(C(F)(F)F)OC(C)(C(C)(C)C)N2 (centres undefined)
inactive: [1] 2.54 µM | [2] 2.9 µM | [3] 3.04 µM | [4] 6.56 µM | [14] 4.43 µM | [5] 2 µM | [6] 8.28 µM | [7] 5.41 µM | [8] 4.72 µM | [9] 2.97 µM | [10] 2.01 µM | [11] 2.48 µM | [13] 3.55 µM

O=C1CCCCCCC2=C1C(Sc1ccccc1)CC2 (centres undefined)
inactive: [1] 18.1 µM | [2] 27.2 µM | [14] 18.9 µM | [5] 21.1 µM | [6] 32.4 µM | [7] 40.3 µM | [9] 18.8 µM | [10] 30.5 µM | [11] 27.2 µM | [12] 12.8 µM

CN1C(=O)CC2(C)c3cc(O)cc(Br)c3N(C)C12 (centres undefined)
inactive: [1] > 100 µM | [2] > 100 µM | [4] > 100 µM | [14] > 100 µM | [5] 30.8 µM | [6] > 100 µM | [7] > 100 µM | [8] > 100 µM | [9] 57.7 µM | [10] > 100 µM | [11] > 100 µM | [13] > 100 µM

CCCCCCCCCCCCC(Br)C(=O)SCCNC(=O)CCNC(=O)[C@@H](O)C(C)(C)COP(=O)(O)OP(=O)(O)OCC1OC(n2cnc3c(N)ncnc32)C(O)C1OP(=O)(O)O (some centres undefined)
inactive: [4] > 56.5 µM | [14] > 56.5 µM | [5] > 56.5 µM | [6] > 56.5 µM | [7] > 56.5 µM | [8] > 56.5 µM | [9] > 56.5 µM | [10] > 56.5 µM | [11] 22.5 µM | [12] > 56.5 µM | [13] > 56.5 µM

CC12CO[C@@](C)(CC(S(=O)(=O)c3ccccc3)C1)O2 (some centres undefined)
inactive: [1] > 100 µM | [2] > 100 µM | [4] > 100 µM | [14] > 100 µM | [5] 37 µM | [6] > 100 µM | [7] > 100 µM | [8] > 100 µM | [9] > 100 µM | [10] > 100 µM | [11] > 100 µM | [12] > 100 µM | [13] > 100 µM

C/C(=C\C(C[C@](C)(O)C(O)CCC#C[Si](C)(C)C)S(=O)(=O)c1ccccc1)CC/C=C/CO[Si](C)(C)C(C)(C)C (some centres undefined)
inactive: [1] 6.95 µM | [2] 10.7 µM | [3] 18.6 µM | [4] 21 µM | [14] 14.7 µM | [7] 19.8 µM | [8] 18 µM | [9] 21.9 µM | [10] 13.6 µM | [11] 12.5 µM | [12] 14.9 µM | [13] 20 µM
